Measured values: ChEMBL document CHEMBL3271973, “Synthesis and biological activities of 5-trifluoromethyl-5'-azido-2',5'-dideoxyuridine and 5-trifluoromethyl-5'-amino-2',5'-dideoxyuridine” (J Med Chem, 1976)
The source made the active and inactive calls. No cut-off for these calls is given here.

Assays:
Vero = assay: Cytotoxicity against African green monkey Vero cells at 1 uM after 3 days by haemocytometer analysis; assay type: cell-based; details: chlorocebus sabaeus, 72 h
Sarcoma-180 = assay: Cytotoxicity against mouse Sarcoma 180 cells after 1 to 3 days by coulter counter analysis; assay type: functional, cell-based
[1] = Antiviral activity against HSV1 CL-101 infected in African green monkey Vero cells assessed as reduction of viral titer at 50 uM after 40 hrs; assay type: functional, Herpes simplex virus (type 1 / strain CL101)
[2] = Antiviral activity against HSV1 CL-101 infected in African green monkey Vero cells assessed as reduction of viral titer at 200 uM after 40 hrs; assay type: functional, Herpes simplex virus (type 1 / strain CL101)
[3] = Therapeutic index, ratio of cytotoxicity against African green monkey Vero cells to antiviral activity against HSV1 CL-101; assay type: cell-based; details: read-out: TI

Compound	Activity (Vero)	Activity (Sarcoma-180)	Activity [1]	Activity [2]	selectivity ratio [3]
O=c1[nH]c(=O)n([C@H]2C[C@H](O)[C@@H](CO)O2)cc1C(F)(F)F [TRIFLURIDINE]	Toxic	Active	1.5 ×10⁵ PFU	–	–
[N-]=[N+]=NC[C@H]1O[C@@H](n2cc(C(F)(F)F)c(=O)[nH]c2=O)C[C@@H]1O	–	Active	–	1.7 ×10⁶ PFU	–
NC[C@H]1O[C@@H](n2cc(C(F)(F)F)c(=O)[nH]c2=O)C[C@@H]1O	–	Active	–	1 ×10⁵ PFU	10
